Reference: the supplement of paper PMC11451515

Tested on: SEM cells
Assay: cell viability relative to DMSO control; higher = less cytotoxic
Conditions: 48 h
Outline: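 Before seeding, each leukemia line was adapted for at least four passages in each medium. NOMO1 or SEM cells (500 cells/well) and P12-Ichikawa cells (1000 cells/well) went into 1536-well plates at 5 μl, then received library compounds in DMSO by pin dosing across 11 threefold concentrations, 47 μM to 0.79 nM. Readout was CellTiter-Glo One luminescence after 48 h at 37°C, and viability is given as a per-plate percentage of DMSO wells, with cell-free wells as background.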

[1] = HPLM + 10% dialyzed FBS, 0.000781 µM
[2] = HPLM + 10% dialyzed FBS, 0.00234 µM
[3] = HPLM + 10% dialyzed FBS, 0.00702 µM
[4] = HPLM + 10% dialyzed FBS, 0.0211 µM
[5] = HPLM + 10% dialyzed FBS, 0.0632 µM
[6] = HPLM + 10% dialyzed FBS, 0.19 µM
[7] = HPLM + 10% dialyzed FBS, 0.569 µM
[8] = HPLM + 10% dialyzed FBS, 1.71 µM
[9] = HPLM + 10% dialyzed FBS, 5.12 µM
[10] = HPLM + 10% dialyzed FBS, 15.4 µM
[11] = HPLM + 10% dialyzed FBS, 46.1 µM
[12] = RPMI 5 mM glucose + 10% FBS, 0.000781 µM
[13] = RPMI 5 mM glucose + 10% FBS, 0.00234 µM
[14] = RPMI 5 mM glucose + 10% FBS, 0.00702 µM
[15] = RPMI 5 mM glucose + 10% FBS, 0.0211 µM
[16] = RPMI 5 mM glucose + 10% FBS, 0.0632 µM
[17] = RPMI 5 mM glucose + 10% FBS, 0.19 µM
[18] = RPMI 5 mM glucose + 10% FBS, 0.569 µM
[19] = RPMI 5 mM glucose + 10% FBS, 1.71 µM
[20] = RPMI 5 mM glucose + 10% FBS, 5.12 µM
[21] = RPMI 5 mM glucose + 10% FBS, 15.4 µM
[22] = RPMI 5 mM glucose + 10% FBS, 46.1 µM
[23] = RPMI 5 mM glucose + 10% dialyzed FBS, 0.000781 µM
[24] = RPMI 5 mM glucose + 10% dialyzed FBS, 0.00234 µM
[25] = RPMI 5 mM glucose + 10% dialyzed FBS, 0.00702 µM
[26] = RPMI 5 mM glucose + 10% dialyzed FBS, 0.0211 µM
[27] = RPMI 5 mM glucose + 10% dialyzed FBS, 0.0632 µM
[28] = RPMI 5 mM glucose + 10% dialyzed FBS, 0.19 µM
[29] = RPMI 5 mM glucose + 10% dialyzed FBS, 0.569 µM
[30] = RPMI 5 mM glucose + 10% dialyzed FBS, 1.71 µM
[31] = RPMI 5 mM glucose + 10% dialyzed FBS, 5.12 µM
[32] = RPMI 5 mM glucose + 10% dialyzed FBS, 15.4 µM
[33] = RPMI 5 mM glucose + 10% dialyzed FBS, 46.1 µM

Row | Compound | cell viability [1] [%] | cell viability [2] [%] | cell viability [3] [%] | cell viability [4] [%] | cell viability [5] [%] | cell viability [6] [%] | cell viability [7] [%] | cell viability [8] [%] | cell viability [9] [%] | cell viability [10] [%] | cell viability [11] [%] | cell viability [12] [%] | cell viability [13] [%] | cell viability [14] [%] | cell viability [15] [%] | cell viability [16] [%] | cell viability [17] [%] | cell viability [18] [%] | cell viability [19] [%] | cell viability [20] [%] | cell viability [21] [%] | cell viability [22] [%] | cell viability [23] [%] | cell viability [24] [%] | cell viability [25] [%] | cell viability [26] [%] | cell viability [27] [%] | cell viability [28] [%] | cell viability [29] [%] | cell viability [30] [%] | cell viability [31] [%] | cell viability [32] [%] | cell viability [33] [%]
1 | CCOC(=O)[C@@]1(CCCCCCOc2ccc(Cl)cc2)CO1 | 95.4 | 103 | 111 | 112 | 113 | 95.9 | 115 | 94.3 | 95.2 | 51.3 | 23.9 | 114 | 119 | 126 | 120 | 125 | 116 | 115 | 98.5 | 102 | 32.3 | 12.6 | 102 | 107 | 107 | 106 | 103 | 107 | 114 | 102 | 95 | 50.4 | 17
2 | COc1ccc(C(CN(C)C)C2(O)CCCCC2)cc1 (configuration not stated) | 83.7 | 134 | 106 | 134 | 124 | 118 | 106 | 107 | 117 | 116 | 104 | 78.5 | 132 | 122 | 110 | 124 | 125 | 103 | 112 | 119 | 120 | 95.9 | 64.9 | 120 | 122 | 134 | 163 | 138 | 115 | 122 | 148 | 118 | 135
3 | C[C@H]1C[C@H]2[C@@H]3CC[C@](O)(C(=O)CO)[C@@]3(C)C[C@H](O)[C@@H]2[C@@]\4(C)/C=C\C(=O)\C=C14 | 78.4 | 85 | 76.7 | 87.1 | 86.2 | 75.6 | 57.1 | 41.3 | 47.4 | 46.9 | 42.6 | 76.9 | 104 | 90 | 101 | 90.5 | 102 | 71.3 | 39.2 | 51.5 | 51.2 | 40.2 | 90.6 | 92.4 | 101 | 95.7 | 93.2 | 96.3 | 72.1 | 40.9 | 45.7 | 45 | 33.3
4 | Clc1cccc(-n2nnnc2NCc2ccccc2Oc2ccccn2)c1Cl | 102 | 123 | 124 | 133 | 123 | 131 | 128 | 125 | 127 | 139 | 138 | – | – | – | – | – | – | – | – | – | – | – | 116 | 149 | 125 | 140 | 113 | 126 | 149 | 129 | 148 | 147 | 119
5 | CN1CCN(c2c(F)cc3c(=O)c(C(=O)O)cn(CCF)c3c2F)CC1 | 84.2 | 85.3 | 103 | 118 | 108 | 105 | 100 | 109 | 109 | 105 | 110 | 96.4 | 96.4 | 108 | 105 | 110 | 104 | 116 | 111 | 125 | 118 | 101 | 105 | 92.6 | 123 | 113 | 111 | 112 | 117 | 129 | 111 | 114 | 118
6 | CCCC(C)(COC(N)=O)COC(=O)NC(C)C (configuration not stated) | 87.5 | 95.9 | 117 | 111 | 139 | 120 | 120 | 131 | 126 | 123 | 130 | 97.3 | 113 | 140 | 138 | 127 | 148 | 147 | 163 | 134 | 149 | 160 | 88 | 121 | 144 | 150 | 138 | 128 | 156 | 143 | 139 | 164 | 153
7 | CC\12CCC(=O)\C=C1CCC3C2CCC4(C)C3CCC4(O)C#C (configuration not stated) | 105 | 104 | 105 | 99.9 | 113 | 102 | 103 | 117 | 91.1 | 94.9 | 90.5 | 107 | 92.2 | 99.2 | 102 | 94.5 | 106 | 95.7 | 95.8 | 70.7 | 100 | 99 | 112 | 105 | 98.3 | 113 | 117 | 102 | 113 | 98.5 | 97.3 | 106 | 99.9
8 | NC(=O)Nc1sc(-c2ccc(F)cc2)cc1C(N)=O | 99.3 | 113 | 115 | 110 | 96.7 | 125 | 119 | 103 | 90.5 | 61.7 | 18.3 | – | – | – | – | – | – | – | – | – | – | – | 112 | 116 | 117 | 103 | 125 | 109 | 106 | 97.2 | 75.1 | 55.9 | 11
